The record followed here is US12091402B2 (Avilar Therapeutics, Inc., priority 2021, dated 2024).

Where two headings read alike, the source gives them in different places. Some results are limits rather than exact numbers.

Assay [1] has as its target IgG. Put plainly: Affinity to IgG by surface plasmon resonance (SPR). It counts as binding. As to the method:
Immobilization levels ranging from 1000-1300 resonance units (RU) are obtained. The running buffer is 10 mM HEPES, pH 7.4, 400 mM NaCl, 0.005% P20, […].

Assay [2] concerns the target T1, ASGPR receptor on the cell surface (HepG2 cells) (Homo sapiens, UniProt P07306).
T1 construct: host or cells: HepG2
T1 sequence (P07306 1-291): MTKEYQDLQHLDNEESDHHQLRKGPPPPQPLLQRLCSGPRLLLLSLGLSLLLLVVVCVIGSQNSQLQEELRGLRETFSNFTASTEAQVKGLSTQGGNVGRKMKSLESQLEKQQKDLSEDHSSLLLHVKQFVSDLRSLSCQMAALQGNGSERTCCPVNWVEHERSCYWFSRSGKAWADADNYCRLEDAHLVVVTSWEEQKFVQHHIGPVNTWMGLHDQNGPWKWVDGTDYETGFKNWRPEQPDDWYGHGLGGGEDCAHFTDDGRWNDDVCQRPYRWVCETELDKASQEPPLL
T1 sequence (P07307 1-311 partner): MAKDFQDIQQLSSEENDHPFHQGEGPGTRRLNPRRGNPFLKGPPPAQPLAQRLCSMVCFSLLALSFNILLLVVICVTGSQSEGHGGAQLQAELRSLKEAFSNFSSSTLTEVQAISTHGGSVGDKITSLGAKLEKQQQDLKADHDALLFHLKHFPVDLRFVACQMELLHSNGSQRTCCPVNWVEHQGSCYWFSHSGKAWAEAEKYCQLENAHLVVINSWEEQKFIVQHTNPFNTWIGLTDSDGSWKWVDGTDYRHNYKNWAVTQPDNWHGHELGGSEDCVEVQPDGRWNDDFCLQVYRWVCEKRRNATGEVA
Briefly: Ternary complex formation assay (flow cytometry, HepG2). It counts as cell-based. The method in brief: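 HepG2 cells (1×10^5/well) incubated 1 h at 4 °C with 100 nM AF488-labeled anti-human IgG plus serial IgG-based degrader, or 100 nM AF488 rabbit anti-DNP plus serial DNP-based degrader. After washing, cell-associated AF488 MFI read by flow cytometry; peak MFI marks optimal degrader concentration for ternary complex.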

Assay [3] has as its system HepG2 cells. Put plainly: Cellular uptake assay of AF488-labeled antibody (HepG2). It counts as cell-based. The method in brief:
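HepG2 cells given 100 nM AF488-labeled human IgG or DNP antibody plus serial dilutions of matching degrader (0.1% DMSO final), 6 h at 37° C. Methanol-fixed, DAPI-stained and imaged by high-content analysis. Value is the fraction of AF488-positive cells over total DAPI-counted cells.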

Assay [4] deals with T2, ASGPR (Homo sapiens, UniProt P07306).
T2 sequence (P07306 1-291): T1 sequence (P07306 1-291)
Briefly: Affinity to ASGPR by surface plasmon resonance (SPR).

The mark [5] stands for this setting: HepG2 cells, ternary complex formation, read-out: TCF EC50.
[6] abbreviates: HepG2 cells, read-out: Uptake EC50.

As for `CC(C)C[C@@H]1NC(=O)[C@H](Cc2c[nH]cn2)NC(=O)[C@H](Cc2c[nH]c3ccccc23)NC(=O)[C@H](C)NC(=O)[C@@H]2CSSC[C@H](NC(=O)[C@H](Cc3c[nH]c4ccccc34)NC(=O)[C@H](C(C)C)NC(=O)[C@H](CC(C)C)NC(=O)[C@H](CCC(=O)O)NC(=O)CNC1=O)C(=O)N[C@@H]([C@@H](C)O)C(=O)N1CCC[C@@H]1C(=O)N1C[C@@H](NC(=O)CCOCCNC(=O)CCCc3cn(CCCCCC(=O)NC(COCCC(=O)NCCOCCOCCOCCOC[C@@]45CO[C@@H](O4)[C@H](Nc4nc(Cl)ns4)[C@@H](O)[C@H]5O)COCCC(=O)NCCOCCOCCOCCOC[C@@]45CO[C@@H](O4)[C@H](Nc4nc(Cl)ns4)[C@@H](O)[C@H]5O)nn3)C[C@H]1C(=O)N[C@@H](CC(=O)O)C(=O)N2` [Compound 9], the Kd is under 100 nM in assay [1] (Biacore 8K, 25° C., IgG on CM5 chip, read-out: IgG SPR Binding Kd) and under 100 nM in assay [4]. Moreover, the EC50 in assay [2] was under 100 nM; in assay [3] (HepG2 cells, 100 nM AF488-labeled antibody, 37° C. for 6 hours, class symbols, read-out: Uptake Assay EC50), under 100 nM.

As for `CC(C)C[C@@H]1NC(=O)[C@H](Cc2cnc[nH]2)NC(=O)[C@H](Cc2c[nH]c3ccccc23)NC(=O)[C@H](C)NC(=O)[C@@H]2CSSC[C@H](NC(=O)[C@H](Cc3c[nH]c4ccccc34)NC(=O)[C@H](C(C)C)NC(=O)[C@H](CC(C)C)NC(=O)[C@H](CCC(=O)O)NC(=O)CNC1=O)C(=O)N[C@@H]([C@@H](C)O)C(=O)N1CCC[C@@H]1C(=O)N1C[C@@H](NC(=O)C3CCC(C(=O)NC[C@H]4OC[C@H](Nc5cncc(C(F)(F)F)n5)[C@@H](O)[C@H]4O)CC3)C[C@H]1C(=O)N[C@@H](CC(=O)O)C(=O)N2` (some centres unmarked) [Compound 69], the Kd in assay [1] (SPR, read-out: IgG KD) was under 100 nM; in assay [4], 100 to 500 nM. Besides, the EC50 in assay [2] (setting [5]) and in assay [3] (setting [6]) was over 1000 nM throughout.

As to `CC(C)C[C@@H]1NC(=O)[C@H](Cc2c[nH]cn2)NC(=O)[C@H](Cc2c[nH]c3ccccc23)NC(=O)[C@H](C)NC(=O)[C@@H]2CSSC[C@H](NC(=O)[C@H](Cc3c[nH]c4ccccc34)NC(=O)[C@H](C(C)C)NC(=O)[C@H](CC(C)C)NC(=O)[C@H](CCC(=O)O)NC(=O)CNC1=O)C(=O)N[C@@H]([C@@H](C)O)C(=O)N1CCC[C@@H]1C(=O)N1C[C@@H](NC(=O)CCOCCOCCOCCOCCNC(=O)CCCc3cn(CCCCCC(=O)NC(COCCC(=O)NCCOCCOCCOCCOC[C@@]45CO[C@@H](O4)[C@H](NC(=O)C(F)(F)F)[C@@H](O)[C@H]5O)COCCC(=O)NCCOCCOCCOCCOC[C@@]45CO[C@@H](O4)[C@H](NC(=O)C(F)(F)F)[C@@H](O)[C@H]5O)nn3)C[C@H]1C(=O)N[C@@H](CC(=O)O)C(=O)N2` [Compound 94], the equilibrium dissociation constant (Kd) in assay [1] (SPR, read-out: IgG KD) is under 100 nM; in assay [4], under 100 nM. Moreover, the EC50 in assay [2] (setting [5]) and in assay [3] (setting [6]) was under 100 nM in each case.

Regarding `CC(C)C[C@@H]1NC(=O)[C@H](Cc2c[nH]cn2)NC(=O)[C@H](Cc2c[nH]c3ccccc23)NC(=O)[C@H](C)NC(=O)[C@@H]2CSSC[C@H](NC(=O)[C@H](Cc3c[nH]c4ccccc34)NC(=O)[C@H](C(C)C)NC(=O)[C@H](CC(C)C)NC(=O)[C@H](CCC(=O)O)NC(=O)CNC1=O)C(=O)N[C@@H]([C@@H](C)O)C(=O)N1CCC[C@@H]1C(=O)N1C[C@@H](NC(=O)CCOCCOCCOCCOCCNC(=O)CCCc3cn(CCCCCC(=O)NC(COCCC(=O)NCCOCCOCCOCCOC[C@@]45CO[C@@H](O4)[C@H](NC(=O)C(F)(F)F)[C@@H](O)[C@H]5O)(COCCC(=O)NCCOCCOCCOCCOC[C@@]45CO[C@@H](O4)[C@H](NC(=O)C(F)(F)F)[C@@H](O)[C@H]5O)COCCC(=O)NCCOCCOCCOCCOC[C@@]45CO[C@@H](O4)[C@H](NC(=O)C(F)(F)F)[C@@H](O)[C@H]5O)nn3)C[C@H]1C(=O)N[C@@H](CC(=O)O)C(=O)N2` [Compound 95], the equilibrium dissociation constant (Kd) in assay [1] (SPR, read-out: IgG KD) was under 100 nM; in assay [4], under 100 nM. For the same compound, the EC50 in assay [2] and in assay [3] (setting [6]) was under 100 nM in each case.

Consider `CC(C)C[C@@H]1NC(=O)[C@H](Cc2c[nH]cn2)NC(=O)[C@H](Cc2c[nH]c3ccccc23)NC(=O)[C@H](C)NC(=O)[C@@H]2CSSC[C@H](NC(=O)[C@H](Cc3c[nH]c4ccccc34)NC(=O)[C@H](C(C)C)NC(=O)[C@H](CC(C)C)NC(=O)[C@H](CCC(=O)N(C)C)NC(=O)CNC1=O)C(=O)N[C@@H]([C@@H](C)O)C(=O)N1CCC[C@@H]1C(=O)N1C[C@@H](NC(=O)CNC(COCCC(=O)NCCOCCOCCOCCOC[C@H]3OC[C@H](Nc4cncc(C(F)(F)F)n4)[C@@H](O)[C@H]3O)COCCC(=O)NCCOCCOCCOCCOC[C@H]3OC[C@H](Nc4cncc(C(F)(F)F)n4)[C@@H](O)[C@H]3O)C[C@H]1C(=O)N[C@@H](CC(=O)O)C(=O)N2` [Compound 75], for which the Kd in assay [1] (SPR, read-out: IgG KD) was under 100 nM; in assay [4] it was under 100 nM. Also, the EC50 in assay [2] and in assay [3] (setting [6]) was under 100 nM in each case.

For `O=C(CCOCC(COCCC(=O)NCCOCCOCCOCCOC[C@H]1OC[C@H](Nc2nccc(C(F)(F)F)n2)[C@@H](O)[C@H]1O)NC(=O)COCCOCCOCCNc1ccc([N+](=O)[O-])cc1[N+](=O)[O-])NCCOCCOCCOCCOC[C@H]1OC[C@H](Nc2nccc(C(F)(F)F)n2)[C@@H](O)[C@H]1O` [Compound 32, 3,3′-((2-(2-(2-(2-(2-((2,4-dinitrophenyl)amino)ethoxy)ethoxy)ethoxy)acetamido)propane-1,3-diyl)bis(oxy))bis(N-(1-((2R,3R,4R,5S)-3,4-dihydroxy-5-((4-(trifluoromethyl)pyrimidin-2-yl)amino)tetrahydro-2H-pyran-2-yl)-2,5,8,11-tetraoxatridecan-13-yl)propanamide)], the Kd is under 100 nM in assay [1] (SPR, read-out: IgG KD) and under 100 nM in assay [4]. Moreover, the EC50 in assay [2] (setting [5]) is under 100 nM; in assay [2] (Ternary Complex EC50 (nM), HepG2 cells, 100 nM AF488-labeled antibody, 1 hour at 4° C., class symbols), under 100 nM; in assay [3] (setting [6]), under 100 nM; in assay [3] (Homo sapiens, HepG2, 6 h, read-out: Uptake Assay EC50 (nM)), under 100 nM.

Regarding `CC(C)C[C@@H]1NC(=O)[C@H](Cc2cnc[nH]2)NC(=O)[C@H](Cc2c[nH]c3ccccc23)NC(=O)[C@H](C)NC(=O)[C@@H]2CSSC[C@H](NC(=O)[C@H](Cc3c[nH]c4ccccc34)NC(=O)[C@H](C(C)C)NC(=O)[C@H](CC(C)C)NC(=O)[C@H](CCC(=O)O)NC(=O)CNC1=O)C(=O)N[C@@H]([C@@H](C)O)C(=O)N1CCC[C@@H]1C(=O)N1C[C@@H](NC(=O)CNC(COCCC(=O)NC[C@H]3OC[C@H](Nc4cncc(C(F)(F)F)n4)[C@@H](O)[C@H]3O)COCCC(=O)NC[C@H]3OC[C@H](Nc4cncc(C(F)(F)F)n4)[C@@H](O)[C@H]3O)C[C@H]1C(=O)N[C@@H](CC(=O)O)C(=O)N2` [Compound 65], the Kd in assay [1] (SPR, read-out: IgG KD) was under 100 nM; in assay [4] it was under 100 nM. Moreover, the EC50 in assay [2] (setting [5]) and in assay [3] (setting [6]) was under 100 nM throughout.

Take `CC(C)C[C@@H]1NC(=O)[C@H](Cc2cnc[nH]2)NC(=O)[C@H](Cc2c[nH]c3ccccc23)NC(=O)[C@H](C)NC(=O)[C@@H]2CSSC[C@H](NC(=O)[C@H](Cc3c[nH]c4ccccc34)NC(=O)[C@H](C(C)C)NC(=O)[C@H](CC(C)C)NC(=O)[C@H](CCC(=O)N(C)C)NC(=O)CNC1=O)C(=O)N[C@@H]([C@@H](C)O)C(=O)N1CCC[C@@H]1C(=O)N1C[C@@H](NC(=O)CNC(COCCC(=O)NCCOCCOCCOCCOC[C@H]3OC[C@H](Nc4cncc(C(F)(F)F)n4)[C@@H](O)[C@H]3O)COCCC(=O)NCCOCCOCCOCCOC[C@H]3OC[C@H](Nc4cncc(C(F)(F)F)n4)[C@@H](O)[C@H]3O)C[C@H]1C(=O)N[C@@H](C)C(=O)N2` [Compound 77]: the Kd in assay [1] (SPR, read-out: IgG KD) is under 100 nM; in assay [4] it was under 100 nM. The EC50 in assay [2] (TCF EC50, HepG2 cells, ternary complex formation) was under 100 nM; in assay [3] (setting [6]), under 100 nM.

In the case of `CC(C)C[C@@H]1NC(=O)[C@H](Cc2cnc[nH]2)NC(=O)[C@H](Cc2c[nH]c3ccccc23)NC(=O)[C@H](C)NC(=O)[C@@H]2CSSC[C@H](NC(=O)[C@H](Cc3c[nH]c4ccccc34)NC(=O)[C@H](C(C)C)NC(=O)[C@H](CC(C)C)NC(=O)[C@H](CCC(=O)O)NC(=O)CNC1=O)C(=O)N[C@@H]([C@@H](C)O)C(=O)N1CCC[C@@H]1C(=O)N1C[C@@H](NC(=O)c3ccc(-c4ccc(C(=O)NC[C@H]5OC[C@H](Nc6cncc(C(F)(F)F)n6)[C@@H](O)[C@H]5O)cc4)cc3)C[C@H]1C(=O)N[C@@H](CC(=O)O)C(=O)N2` [Compound 72], the Kd was under 100 nM in assay [1] (SPR, read-out: IgG KD) and under 100 nM in assay [4]. For the same compound, the values for the EC50 in assay [2] (setting [5]) and in assay [3] (setting [6]) were 500 to 1000 nM and under 100 nM, respectively.
